Paper PMC2263054, “Functional evolution of the vitamin D and pregnane X receptors” (BMC Evolutionary Biology, 2007)
Where a name gives a salt, the structure may show the parent alone. Read-outs that look alike come from different tables or passages of the source.

Legend:
Format in all cases: cell-based
Sea lamprey VDR = target: T1, Sea lamprey VDR (Petromyzon marinus, UniProt Q7ZZY9)
T1 sequence (Q7ZZY9 92-406): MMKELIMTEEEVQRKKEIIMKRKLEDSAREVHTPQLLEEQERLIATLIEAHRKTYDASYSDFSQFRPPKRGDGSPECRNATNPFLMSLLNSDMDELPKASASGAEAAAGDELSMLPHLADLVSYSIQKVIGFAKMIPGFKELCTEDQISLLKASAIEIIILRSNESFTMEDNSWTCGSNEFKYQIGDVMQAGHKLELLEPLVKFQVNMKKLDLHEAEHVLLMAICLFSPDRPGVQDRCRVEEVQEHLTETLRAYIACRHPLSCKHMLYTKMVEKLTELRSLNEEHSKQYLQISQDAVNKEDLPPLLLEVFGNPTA

Xenopus laevis VDR = target: T2, Xenopus laevis VDR (Xenopus laevis, UniProt O13124); assay: luciferase reporter transactivation assay in HepG2-NTCP cells, GAL4/xlVDR LBD chimera with tk-UAS-Luc; details: for Effect on Xenopus laevis VDR: screening for activators, at least three concentrations of each drug
T2 sequence (O13124 90-422): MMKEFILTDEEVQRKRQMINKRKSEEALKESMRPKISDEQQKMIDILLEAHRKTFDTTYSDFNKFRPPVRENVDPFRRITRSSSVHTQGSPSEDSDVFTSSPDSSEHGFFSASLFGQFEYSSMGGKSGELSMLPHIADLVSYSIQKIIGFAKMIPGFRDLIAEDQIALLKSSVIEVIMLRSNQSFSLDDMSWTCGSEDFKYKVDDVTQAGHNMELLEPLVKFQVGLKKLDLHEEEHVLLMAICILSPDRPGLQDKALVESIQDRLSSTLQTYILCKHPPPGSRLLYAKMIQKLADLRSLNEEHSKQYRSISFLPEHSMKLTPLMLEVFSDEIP

Zebrafish VDR = target: T3, Zebrafish VDR (Danio rerio, UniProt Q9PTN2); assay: luciferase reporter transactivation assay in HepG2-NTCP cells, GAL4/zfVDR LBD chimera with tk-UAS-Luc; details: for Effect on zebrafish VDR: screening for activators, at least three concentrations of each drug
T3 sequence (Q9PTN2 121-453): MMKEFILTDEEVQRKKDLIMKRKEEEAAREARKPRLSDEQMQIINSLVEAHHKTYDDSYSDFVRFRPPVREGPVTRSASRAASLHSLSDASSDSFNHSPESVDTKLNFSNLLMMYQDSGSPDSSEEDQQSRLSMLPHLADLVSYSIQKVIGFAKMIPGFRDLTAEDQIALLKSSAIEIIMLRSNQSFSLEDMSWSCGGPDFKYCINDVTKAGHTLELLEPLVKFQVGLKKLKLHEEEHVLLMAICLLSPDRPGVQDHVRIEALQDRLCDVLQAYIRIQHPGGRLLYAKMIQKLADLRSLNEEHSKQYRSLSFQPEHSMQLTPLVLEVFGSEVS

[1] = screening for activators, at least three concentrations of each drug
[2] = HepG2-NTCP cells, luciferase reporter, unit not given, also cells saying No effect

CC(=O)N1CCN(c2ccc(OCC3COC(Cn4ccnc4)(c4ccc(Cl)cc4Cl)O3)cc2)CC1 (stereo not drawn) [Ketoconazole]
No effect: Effect on sea lamprey VDR (Sea lamprey VDR; [1]) | Effect on Xenopus laevis VDR (Xenopus laevis VDR) | Effect on zebrafish VDR (Zebrafish VDR)

CCCc1c(OCCCCc2nnn[nH]2)ccc(C(C)=O)c1O [LY 171883]
No effect: Effect on sea lamprey VDR (Sea lamprey VDR; [1]) | Effect on Xenopus laevis VDR (Xenopus laevis VDR) | Effect on zebrafish VDR (Zebrafish VDR)

C=CC[C@@H]1[C@H](O)CC[C@@]2(C)[C@H]1CC[C@@H]1[C@@H]2CC[C@]2(C)[C@@H]([C@H](C)CCCC(C)C)CC[C@@H]12 [LY 295427]
No effect: Effect on sea lamprey VDR (Sea lamprey VDR; [1]) | Effect on Xenopus laevis VDR (Xenopus laevis VDR) | Effect on zebrafish VDR (Zebrafish VDR)

CC(C)=CCC[C@@H](C)[C@H]1CC[C@@]2(C)C3=C(CC[C@]12C)[C@@]1(C)CC[C@H](O)C(C)(C)[C@@H]1CC3 [Lanosterol]
No effect: Effect on sea lamprey VDR (Sea lamprey VDR; [1]) | Effect on Xenopus laevis VDR (Xenopus laevis VDR) | Effect on zebrafish VDR (Zebrafish VDR)

CC(C)CCC[C@@H](C)[C@H]1CC[C@H]2C3=CC[C@H]4C[C@@H](O)CC[C@]4(C)[C@H]3CC[C@]12C [Lathosterol]
No effect: Effect on sea lamprey VDR (Sea lamprey VDR; [1]) | Effect on Xenopus laevis VDR (Xenopus laevis VDR) | Effect on zebrafish VDR (Zebrafish VDR)

C#C[C@]1(O)CC[C@H]2[C@@H]3CCC4=CC(=O)CC[C@@H]4[C@H]3CC[C@@]21CC [Levonorgestrol]
No effect: Effect on sea lamprey VDR (Sea lamprey VDR; [1]) | Effect on Xenopus laevis VDR (Xenopus laevis VDR) | Effect on zebrafish VDR (Zebrafish VDR)

C[C@H](CCC(=O)O)[C@H]1CC[C@H]2[C@@H]3CC[C@@H]4C[C@H](O)CC[C@]4(C)[C@H]3CC[C@]12C [Lithocholic acid]
No effect: Sea lamprey VDR EC50 ± SD (Sea lamprey VDR; [2]) | Xenopus VDR EC50 ± SD (Xenopus laevis VDR; [2]) | Zebrafish VDR EC50 ± SD (Zebrafish VDR; [2])

COc1c(C)c2c(c(O)c1C/C=C(\C)CCC(=O)O)C(=O)OC2 [Mycophenolic acid]
No effect: Effect on sea lamprey VDR (Sea lamprey VDR; [1]) | Effect on Xenopus laevis VDR (Xenopus laevis VDR) | Effect on zebrafish VDR (Zebrafish VDR)

CCCCCCCC/C=C\CCCCCCCC(=O)NCCO [N-Oleoylethanolamide]
No effect: Effect on sea lamprey VDR (Sea lamprey VDR; [1]) | Effect on Xenopus laevis VDR (Xenopus laevis VDR) | Effect on zebrafish VDR (Zebrafish VDR)

C#C[C@]1(O)CC[C@H]2[C@@H]3CCC4=CC(=O)CC[C@@H]4[C@H]3CC[C@@]21C [Norethindrone]
No effect: Effect on sea lamprey VDR (Sea lamprey VDR) | Effect on Xenopus laevis VDR (Xenopus laevis VDR) | Effect on zebrafish VDR (Zebrafish VDR)

CC(=O)O[C@H]1C(=O)[C@@]2(C)[C@H]([C@H](OC(=O)c3ccccc3)[C@]3(O)C[C@H](OC(=O)[C@H](O)[C@@H](NC(=O)c4ccccc4)c4ccccc4)C(C)=C1C3(C)C)[C@]1(OC(C)=O)CO[C@@H]1C[C@@H]2O [Paclitaxel]
No effect: Effect on sea lamprey VDR (Sea lamprey VDR; [1]) | Effect on Xenopus laevis VDR (Xenopus laevis VDR) | Effect on zebrafish VDR (Zebrafish VDR)

CC(C)(O)[C@H]1O[C@H]2CC[C@@]3(C)[C@@](O)(CC[C@H]4Cc5c([nH]c6ccccc56)[C@@]43C)C2=CC1=O [Paxilline]
No effect: Effect on sea lamprey VDR (Sea lamprey VDR; [1]) | Effect on Xenopus laevis VDR (Xenopus laevis VDR) | Effect on zebrafish VDR (Zebrafish VDR)

CCc1ccc(CCOc2ccc(CC3SC(=O)NC3=O)cc2)nc1 (stereo not drawn) [Pioglitazone HCl]
No effect: Effect on sea lamprey VDR (Sea lamprey VDR; [1]) | Effect on Xenopus laevis VDR (Xenopus laevis VDR) | Effect on zebrafish VDR (Zebrafish VDR)

C[C@H](O)[C@H]1CC[C@H]2[C@@H]3CC[C@@H]4C[C@H](O[C@@H]5O[C@H](C(=O)O)[C@@H](O)[C@H](O)[C@H]5O)CC[C@]4(C)[C@H]3CC[C@]12C [Pregnanediol glucuronide]
No effect: Effect on sea lamprey VDR (Sea lamprey VDR; [1]) | Effect on Xenopus laevis VDR (Xenopus laevis VDR) | Effect on zebrafish VDR (Zebrafish VDR)

CC(=O)[C@H]1[C@H](C#N)C[C@H]2[C@@H]3CC=C4C[C@@H](O)CC[C@]4(C)[C@H]3CC[C@@]21C [Pregnenolone-16a-carbonitrile]
No effect: Effect on sea lamprey VDR (Sea lamprey VDR; [1]) | Effect on Xenopus laevis VDR (Xenopus laevis VDR) | Effect on zebrafish VDR (Zebrafish VDR)
